Among the data in US11834430B2, “Compounds useful as inhibitors of isoprenylcysteine carboxyl methyltransferase” (AGENCY FOR SCIENCE, TECHNOLOGY AND RESEARCH, priority 2017, dated 2023) are IC50 values, retold here.

Molecules are shown by their SMILES. Several values for one entry are separate records, joined by “and”; a condition that tells them apart may be missing. Identical values can stand only once.

The assay concerns the target human ICMT (Homo sapiens (Human), UniProt O60725). The assay is described as follows: ICMT biochemical assay (Methyltransferase-Glo). The settings on record: ICMT membrane extract from Sf-9 cells; 30 min preincubation, 90 min reaction. How it is done:
Recombinant human ICMT was prepared by infection of Sf9 cells with a recombinant baculovirus containing the entire open reading frame of the human ICMT cDNA.
Cells producing ICMT were harvested 66 hours post-infection. The cells are homogenized and resuspended in 5 mM NaHPO4 (pH 7.0), and a cocktail of protease inhibitors. The membrane was pelleted, after removal of nuclei and debris, at 100,000×g for 1 hour. Membranes were resuspended in 5 mM NaHPO4 (pH 7.0) with 5 mM EDTA at 10-12 mg/ml. The suspension was stored at −80° C. in multiple aliquots.
An ICMT enzymatic assay was developed using Promega's Methyltransferase-GloTMreagents. In the assay, ICMT catalyzes the methylation of the N-Acetyl-S-farnesyl-L-cysteine by transferring a methyl group from SAM to the farnesylated cysteine and further converts the SAM to SAH. The methyltransferase activity is measured based on the amount of SAH produced from the reaction through the use of coupling enzymes that convert the SAH to ATP. The MTase-Glo detection solution then catalyzes the formation of light from ATP.
A final concentration of 2.0 μM and 20 μM of SAM and peptide were added and further incubated for 90 minutes at room temperature before adding the MTase Glo and detection reagent. Reaction signals were detected using microplate readers on luminescent mode (Satire Tecan). The IC50 was determined by nonlinear regression, using GraphPad Prism version, 5.03.

Chain of human ICMT (O60725 whole entry): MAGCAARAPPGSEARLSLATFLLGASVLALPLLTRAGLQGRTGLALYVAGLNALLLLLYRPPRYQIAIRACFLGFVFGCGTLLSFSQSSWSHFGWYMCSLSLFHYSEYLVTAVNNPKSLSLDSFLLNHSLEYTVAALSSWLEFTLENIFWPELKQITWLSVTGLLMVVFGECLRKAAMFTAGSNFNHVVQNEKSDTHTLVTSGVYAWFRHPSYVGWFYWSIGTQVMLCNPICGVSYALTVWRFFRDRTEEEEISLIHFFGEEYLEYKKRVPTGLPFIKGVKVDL

Regarding `N#Cc1ccc(OCCOc2cccc(-n3cncn3)c2)cc1` [Compound 1, 4-(2-(3-(1H-1,2,4-triazol-1-yl)phenoxy)ethoxy)benzonitrile], the half-inhibitory concentration (IC50) (usually the concentration at which inhibition is half-maximal) came to 560 nM.
The same measure for `N#Cc1ccc(OCCOc2cccc(-c3cncs3)c2)cc1` [Compound 3, 4-(2-(3-(thiazol-5-yl)phenoxy)ethoxy)benzonitrile]: 630 nM and 490 nM.
As for `Cc1nccn1-c1cccc(OCCOc2ccc(C#N)nc2)c1` [Compound 4, 5-(2-(3-(2-methyl-1H-imidazol-1-yl)phenoxy)ethoxy)picolinonitrile], the half-maximal inhibitory concentration (IC50) is 260 nM and 220 nM and 390 nM.
As for `Cc1nccn1-c1cccc(OCCOc2ccc(C#N)cc2F)c1` [Compound 6, 3-fluoro-4-(2-(3-(2-methyl-1H-imidazol-1-yl)phenoxy)ethoxy)benzonitrile], the figure is 2 nM and 1 nM and 2.4 nM; as for `Cn1nccc1-c1cccc(OCCOc2ccc(C#N)cc2Cl)c1` [Compound 7, 3-chloro-4-(2-(3-(1-methyl-1H-pyrazol-5-yl)phenoxy)ethoxy)benzonitrile], 3 nM; as for `COc1cc(C#N)ccc1OCCOc1cccc(-n2ccnc2C)c1` [Compound 8, 3-methoxy-4-(2-(3-(2-methyl-1H-imidazol-1-yl)phenoxy)ethoxy)benzonitrile], 0.2 nM and 0.36 nM.
Consider `N#Cc1ccc(OCCOc2cccc(-n3ccnc3C3CC3)c2)c(Cl)c1` [Compound 9, 3-chloro-4-(2-(3-(2-cyclopropyl-1H-imidazol-1-yl)phenoxy)ethoxy)benzonitrile], for which the half-maximal inhibitory concentration (IC50) was 0.1 nM and 0.18 nM.
Take `Cc1nccn1-c1cccc(OCCOc2ccc(C#N)cn2)c1` [Compound 10, 6-(2-(3-(2-methyl-1H-imidazol-1-yl)phenoxy)ethoxy)nicotinonitrile]: inhibition was half-maximal at 80 nM (IC50).
The same measure for `N#Cc1ccc(OCCOc2cccc(-c3cncs3)c2)c(Cl)c1` [Compound 11, 3-chloro-4-(2-(3-(thiazol-5-yl)phenoxy)ethoxy)benzonitrile]: 20 nM; for `N#Cc1ccc(OCCOc2cccc(-c3cncs3)c2)c(F)c1` [Compound 12, 3-fluoro-4-(2-(3-(thiazol-5-yl)phenoxy)ethoxy)benzonitrile]: 210 nM; for `Cc1ccc(OCCOc2cccc(-n3ccnc3C)c2)c(C#N)c1` [Compound 13, 5-methyl-2-(2-(3-(2-methyl-1H-imidazol-1-yl)phenoxy)ethoxy)benzonitrile]: 11 nM.
Turning to `Cn1nccc1-c1cccc(OCCOc2ccc(C#N)cc2F)c1` [Compound 14, 3-fluoro-4-(2-(3-(1-methyl-1H-pyrazol-5-yl)phenoxy)ethoxy)benzonitrile], the 50% inhibitory concentration (IC50) was 15 nM.
As for `COc1cc(C#N)ccc1OCCOc1cccc(-c2ccnn2C)c1` [Compound 15, 3-methoxy-4-(2-(3-(1-methyl-1H-pyrazol-5-yl)phenoxy)ethoxy)benzonitrile], the figure is 1.1 nM and 0.9 nM; as for `COc1cc(C#N)ccc1OCCOc1cccc(-c2cncs2)c1` [Compound 16, 3-methoxy-4-(2-(3-(thiazol-5-yl)phenoxy)ethoxy)benzonitrile], 8 nM and 11 nM; as for `N#Cc1ccc(OCCOc2cccc(-n3ccnc3C3CC3)c2)c(F)c1` [Compound 17, 4-(2-(3-(2-cyclopropyl-1H-imidazol-1-yl)phenoxy)ethoxy)-3-fluorobenzonitrile], 16 nM.
As for `Cc1ccc(OCCOc2cccc(-c3ccnn3C)c2)c(C#N)c1` [Compound 18, 5-methyl-2-(2-(3-(1-methyl-1H-pyrazol-5-yl)phenoxy)ethoxy)benzonitrile], the figure is 3 nM; as for `COc1cc(C#N)ccc1OCCOc1cccc(-n2ccnc2C2CC2)c1` [Compound 19, 4-(2-(3-(2-cyclopropyl-1H-imidazol-1-yl)phenoxy)ethoxy)-3-methoxybenzonitrile], 4.5 nM; as for `N#Cc1ccc(OCCOc2cccc(-n3ccnc3C3CC3)c2)cc1` [Compound 20, 4-(2-(3-(2-cyclopropyl-1H-imidazol-1-yl)phenoxy)ethoxy)benzonitrile], 0.17 nM and 0.16 nM.
